Measurements as given in the supplement of paper PMC10307832.

Tests used:
Assay in all cases: relative viability (nuclei count vs DMSO), 5 days (fraction); higher = more cells survive
[1] = test system: NCI-H1915
Method in brief: (§1)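 Relative viability was taken as the ratio of nuclei in treated wells to nuclei in vehicle wells. Lung cancer cell lines in 1536-well plates received compounds by pin tool one day after seeding, either one drug alone or a fixed anchor-drug dose plus five library-drug doses (not always all listed) in √10 steps. Nuclei were counted on 4× images after 5 days of treatment, and values are medians of duplicate plates.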

[2] = test system: NCI-H1793
Method in brief: as §1

[3] = test system: LK-2
Method in brief: as §1

[4] = test system: SK-MES-1
Method in brief: as §1

[5] = test system: SK-LU-1
Method in brief: as §1

[6] = test system: NCI-H2087
Method in brief: as §1

[7] = test system: NCI-H1437
Method in brief: as §1

[8] = test system: EMC-BAC-2
Method in brief: as §1

[9] = test system: NCI-H1755
Method in brief: as §1

[10] = test system: H3255
Method in brief: as §1

[11] = test system: NCI-H1651
Method in brief: as §1

[12] = test system: LXF-289
Method in brief: as §1

[13] = test system: NCI-H2085
Method in brief: as §1

[14] = test system: CAL-12T
Method in brief: as §1

[15] = test system: COR-L 105
Method in brief: as §1

[16] = test system: EKVX
Method in brief: as §1

[17] = test system: NCI-H661
Method in brief: as §1

[18] = test system: PC-3 [JPC-3]
Method in brief: as §1

[19] = test system: LC-2-ad
Method in brief: as §1

[20] = test system: NCI-H2228
Method in brief: as §1

[21] = test system: NCI-H1395
Method in brief: as §1

[22] = test system: NCI-H2347
Method in brief: as §1

[23] = test system: NCI-H1944
Method in brief: as §1

## O=c1[nH]c2ccccc2n1C1CCN(CCCC(c2ccc(F)cc2)c2ccc(F)cc2)CC1 [Pimozide] + COc1cc2c(Oc3ccc(NC(=O)C4(C(=O)Nc5ccc(F)cc5)CC4)cc3F)ccnc2cc1OCCCN1CCOCC1 [Foretinib] (partner 0.25 µM)
[1]; first compound 0.08 µM
  relative viability: 1.05
[1]; first compound 0.253 µM
  relative viability: 1.01
[1]; first compound 0.8 µM
  relative viability: 0.855
[1]; first compound 2.53 µM
  relative viability: 0.974
[1]; first compound 8 µM
  relative viability: 1.05
[2]; first compound 0.253 µM
  relative viability: 0.691
[2]; first compound 0.8 µM
  relative viability: 0.462
[2]; first compound 2.53 µM
  relative viability: 0.582
[2]; first compound 8 µM
  relative viability: 0.521
[3]; first compound 0.08 µM
  relative viability: 1.65
[3]; first compound 0.253 µM
  relative viability: 0.98
[3]; first compound 2.53 µM
  relative viability: 0.875
[3]; first compound 8 µM
  relative viability: 1.24
[4]; first compound 0.08 µM
  relative viability: 0.614
[4]; first compound 0.253 µM
  relative viability: 0.955
[4]; first compound 0.8 µM
  relative viability: 1.06
[4]; first compound 2.53 µM
  relative viability: 1.06
[4]; first compound 8 µM
  relative viability: 0.94
[5]; first compound 0.08 µM
  relative viability: 0.888
[5]; first compound 0.253 µM
  relative viability: 0.793
[5]; first compound 0.8 µM
  relative viability: 0.783
[5]; first compound 2.53 µM
  relative viability: 0.777
[5]; first compound 8 µM
  relative viability: 0.637
[6]; first compound 0.08 µM
  relative viability: 1.21
[6]; first compound 0.253 µM
  relative viability: 0.984
[6]; first compound 2.53 µM
  relative viability: 1.17
[6]; first compound 8 µM
  relative viability: 1.09
[7]; first compound 0.08 µM
  relative viability: 1.27
[7]; first compound 0.253 µM
  relative viability: 1.21
[7]; first compound 0.8 µM
  relative viability: 1.21
[7]; first compound 2.53 µM
  relative viability: 1.28
[7]; first compound 8 µM
  relative viability: 1.18
[8]; first compound 0.08 µM
  relative viability: 0.989
[8]; first compound 0.253 µM
  relative viability: 1.03
[8]; first compound 0.8 µM
  relative viability: 0.986
[8]; first compound 2.53 µM
  relative viability: 0.841
[8]; first compound 8 µM
  relative viability: 0.686
[9]; first compound 0.08 µM
  relative viability: 0.929
[9]; first compound 0.253 µM
  relative viability: 0.928
[9]; first compound 0.8 µM
  relative viability: 0.874
[9]; first compound 2.53 µM
  relative viability: 0.948
[9]; first compound 8 µM
  relative viability: 0.812
[10]; first compound 0.253 µM
  relative viability: 0.781
[10]; first compound 0.8 µM
  relative viability: 0.775
[10]; first compound 2.53 µM
  relative viability: 0.78
[10]; first compound 8 µM
  relative viability: 0.894
[11]; first compound 0.08 µM
  relative viability: 0.763
[11]; first compound 0.253 µM
  relative viability: 0.717
[11]; first compound 0.8 µM
  relative viability: 0.867
[11]; first compound 2.53 µM
  relative viability: 0.871
[11]; first compound 8 µM
  relative viability: 0.869
[12]; first compound 0.08 µM
  relative viability: 0.989
[12]; first compound 0.253 µM
  relative viability: 0.929
[12]; first compound 0.8 µM
  relative viability: 0.944
[12]; first compound 2.53 µM
  relative viability: 0.892
[12]; first compound 8 µM
  relative viability: 0.934
[13]; first compound 0.08 µM
  relative viability: 0.956
[13]; first compound 0.253 µM
  relative viability: 0.899
[13]; first compound 0.8 µM
  relative viability: 1.1
[13]; first compound 2.53 µM
  relative viability: 0.909
[13]; first compound 8 µM
  relative viability: 0.949
[14]; first compound 0.08 µM
  relative viability: 0.979
[14]; first compound 0.253 µM
  relative viability: 1.17
[14]; first compound 0.8 µM
  relative viability: 1.11
[14]; first compound 2.53 µM
  relative viability: 0.928
[14]; first compound 8 µM
  relative viability: 0.96
[15]; first compound 0.253 µM
  relative viability: 1.01
[15]; first compound 0.8 µM
  relative viability: 0.99
[15]; first compound 2.53 µM
  relative viability: 0.876
[15]; first compound 8 µM
  relative viability: 0.779
[16]; first compound 0.08 µM
  relative viability: 0.196
[16]; first compound 0.253 µM
  relative viability: 0.827
[16]; first compound 0.8 µM
  relative viability: 0.764
[16]; first compound 2.53 µM
  relative viability: 0.747
[16]; first compound 8 µM
  relative viability: 0.908
[17]; first compound 0.08 µM
  relative viability: 1.02
[17]; first compound 0.253 µM
  relative viability: 1.03
[17]; first compound 0.8 µM
  relative viability: 0.929
[17]; first compound 2.53 µM
  relative viability: 0.921
[17]; first compound 8 µM
  relative viability: 0.907
[18]; first compound 0.08 µM
  relative viability: 0.839
[18]; first compound 0.253 µM
  relative viability: 1.03
[18]; first compound 0.8 µM
  relative viability: 0.952
[18]; first compound 2.53 µM
  relative viability: 0.931
[18]; first compound 8 µM
  relative viability: 0.86
[19]; first compound 0.08 µM
  relative viability: 0.911
[19]; first compound 0.253 µM
  relative viability: 0.928
[19]; first compound 0.8 µM
  relative viability: 0.909
[19]; first compound 2.53 µM
  relative viability: 0.901
[19]; first compound 8 µM
  relative viability: 0.868
[20]; first compound 0.08 µM
  relative viability: 0.863
[20]; first compound 0.253 µM
  relative viability: 0.839
[20]; first compound 0.8 µM
  relative viability: 0.574
[20]; first compound 2.53 µM
  relative viability: 0.831
[20]; first compound 8 µM
  relative viability: 0.612
[21]; first compound 0.08 µM
  relative viability: 1.02
[21]; first compound 0.253 µM
  relative viability: 0.975
[21]; first compound 0.8 µM
  relative viability: 0.953
[21]; first compound 2.53 µM
  relative viability: 1.03
[21]; first compound 8 µM
  relative viability: 0.91
[22]; first compound 0.08 µM
  relative viability: 0.883
[22]; first compound 0.253 µM
  relative viability: 0.622
[22]; first compound 0.8 µM
  relative viability: 0.964
[22]; first compound 2.53 µM
  relative viability: 1.35
[22]; first compound 8 µM
  relative viability: 1.07
[23]; first compound 0.08 µM
  relative viability: 0.901
[23]; first compound 0.253 µM
  relative viability: 0.891
[23]; first compound 0.8 µM
  relative viability: 0.807
[23]; first compound 2.53 µM
  relative viability: 0.735
[23]; first compound 8 µM
  relative viability: 0.817
